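1) Cells in 96-well plates. 2) Compound, 48 h, 5 concentrations. 3) Linear interpolation between surrounding doses. 4) Unreached endpoint = highest concentration. Abbreviation: GI50, concentration required for 50% inhibition of growth. TGI: concentration producing complete growth inhibition.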
How the values were obtained:
Assay in all cases: inhibition of tumour cell growth, NCI panel, 48 h
HOP-62 NSCLC = tested on: HOP-62 NSCLC
IGROV1 ovarian = tested on: IGROV1 ovarian
MALME-3M melanoma = tested on: MALME-3M melanoma
MOLT-4 leukemia = tested on: MOLT-4 leukemia
OVCAR-3 ovarian = tested on: OVCAR-3 ovarian
OVCAR-8 ovarian = tested on: OVCAR-8 ovarian
RPMI-8226 leukemia = tested on: RPMI-8226 leukemia
SK-MEL-5 melanoma = tested on: SK-MEL-5 melanoma
SR leukemia = tested on: SR leukemia
HS 578T breast = tested on: HS 578T breast

| SMILES | TGI (HOP-62 NSCLC) | TGI (IGROV1 ovarian) | TGI (MALME-3M melanoma) | TGI (MOLT-4 leukemia) | TGI (OVCAR-3 ovarian) | TGI (OVCAR-8 ovarian) | TGI (RPMI-8226 leukemia) | TGI (SK-MEL-5 melanoma) | TGI (SR leukemia) | GI50 (HOP-62 NSCLC) | GI50 (IGROV1 ovarian) | GI50 (MALME-3M melanoma) | GI50 (MOLT-4 leukemia) | GI50 (OVCAR-8 ovarian) | GI50 (RPMI-8226 leukemia) | GI50 (SK-MEL-5 melanoma) | GI50 (SR leukemia) | GI50 (HS 578T breast) | TGI (HS 578T breast) | GI50 (OVCAR-3 ovarian) |
| --- | --- | --- | --- | --- | --- | --- | --- | --- | --- | --- | --- | --- | --- | --- | --- | --- | --- | --- | --- | --- |
| COC(=O)/C=C/c1c(CC=C(C)C)ncn1C | > 100 µM | > 100 µM | > 100 µM | > 100 µM | 59 µM | > 100 µM | > 100 µM | > 100 µM | > 100 µM | – | – | – | – | – | – | – | – | – | – | – |
| CNS(=O)(=O)NNS(=O)(=O)c1ccc(Br)cc1 | > 100 µM | > 100 µM | > 100 µM | – | – | > 100 µM | > 100 µM | > 100 µM | – | – | – | – | – | – | – | – | – | – | – | – |
| Cc1c(/C=N/NC(=O)c2ccc(Cl)cc2)c(=O)n(-c2ccccc2)n1C | > 100 µM | > 100 µM | > 100 µM | > 100 µM | > 100 µM | > 100 µM | > 100 µM | – | > 100 µM | – | – | – | – | – | – | – | – | – | – | – |
| CCCO/S(=N\S(=O)(=O)c1ccccc1)c1ccccc1[N+](=O)[O-] (configuration not stated) | > 100 µM | > 100 µM | > 100 µM | > 100 µM | > 100 µM | > 100 µM | > 100 µM | > 100 µM | > 100 µM | – | – | – | – | – | – | – | – | – | – | – |
| O=C(/C=C/c1ccccc1Cl)NC1C=Nc2ccc([N+](=O)[O-])cc2NC1 (configuration not stated) | > 100 µM | > 100 µM | > 100 µM | 49.3 µM | > 100 µM | > 100 µM | > 100 µM | > 100 µM | 96.2 µM | – | – | – | – | – | – | – | – | – | – | – |
| CCC1CCc2c(c(=O)oc3c2cc(OC)c2cccc(OC)c23)C1 (configuration not stated) | > 100 µM | > 100 µM | > 100 µM | > 100 µM | – | > 100 µM | > 100 µM | 80.9 µM | > 100 µM | – | – | – | – | – | – | – | – | – | – | – |
| COc1c[c]([Hg][O]C(C)=O)c(OC)c(NC(=O)CC(C)=O)[c]1[Hg][O]C(C)=O | 34.4 µM | 23.9 µM | 3 µM | 6.85 µM | > 21.1 µM | > 19.9 µM | 33.4 µM | 11.2 µM | > 100 µM | 20 µM | 11 µM | 1.53 µM | 2.32 µM | 6.71 µM | 4.22 µM | 2.75 µM | 2.59 µM | – | – | – |
| COC1(OC)CC2C(=O)N(Cc3ccccc3)C1C=C2S(=O)(=O)c1ccccc1 (configuration not stated) | > 100 µM | > 100 µM | 39.6 µM | 50.3 µM | 28 µM | 40.5 µM | 63.1 µM | 26.7 µM | 46.3 µM | – | – | – | – | – | – | – | – | – | – | – |
| CCn1c(=O)c2c(=O)c3c4c(oc3oc2c2ccccc21)C(=O)c1ccccc1C4=O | > 100 µM | > 100 µM | > 100 µM | 2.12 µM | 4.51 µM | > 100 µM | > 100 µM | > 100 µM | – | > 21.6 µM | > 50.1 µM | > 100 µM | 0.366 µM | 3.3 µM | 2.91 µM | > 100 µM | – | 19.2 µM | > 100 µM | 0.627 µM |
| Cc1nc([N+](=O)[O-])cn1CC(=N)N | > 100 µM | > 100 µM | > 100 µM | > 100 µM | > 100 µM | > 100 µM | > 100 µM | > 100 µM | > 100 µM | – | – | – | – | – | – | – | – | – | – | – |

Reference: PubChem BioAssay (NCI)
